Measured values from US20200030388A1, “COMPOSITIONS FOR MODIFYING GUT MICROBIOTA” (priority 2017, published 2020).
Marks after values point to notes of the source that are not given here.

Assays:
[1] = system: HFD-induced Obesity in C57BL/6 mice; test: HFD-induced obesity in C57BL/6 mice, 13 weeks (Example 2); assay type: in vivo, mouse; settings: for GPT / HDL / LDL / LDL/HDL / T-CHO / TG: plasma; for percentage frequency of adipocytes, Adipocyte Size area 2000 / percentage frequency of adipocytes, Adipocyte Size area 15000 / percentage frequency of adipocytes, Adipocyte Size area >350000: perigonadal adipose tissue
From the text: After one week of acclimation, animals were randomly distributed into normal diet (ND, 15% energy as fat), HFD (50% energy as fat), and HFD with 0.1% or 0.5% garcinol groups of eight mice in each group for 13 weeks. The experimental diets were modified from the Purina 5001 diet (LabDiet, PMI Nutrition International, St. Louis, Mo., USA). The animals had ad libitum access to food and water. Food cups were replenished with a fresh diet every day. […] Upon termination of the study, the animals were sacrificed by CO2 asphyxiation and dissected, and the weights of their whole bodies and selected tissues, including the liver, kidney, spleen, adipose tissues (perigonadal, retroperitoneal, and mesenteric fat) and serum were immediately collected, weighed, and photographed.
Sections of 3-5 μm in thickness were cut, deparaffinized, rehydrated, stained with H&E, and subjected to photomicroscopic assessment. Adipocyte size was determined using Image J software (Rasband, W. S., ImageJ, U.S. National Institutes of Health, Bethesda, Md., USA).
Blood samples were collected from the left ventricle under anesthesia. The samples were mixed in 10 μL of heparin sodium and centrifuged at 3500 rpm and 4° C. for 10 min. The plasma was then stored at −80° C. until use. Glutamic-pyruvic transaminase (GPT), total cholesterol (TC), TG, high-density lipoprotein (HDL), and low-density lipoprotein (LDL) levels were analyzed at the National Laboratory Animal Center, NLAC (Taipei, Taiwan) on a 7080 Biochemical Analyzer (Hitachi, Tokyo, Japan) according to the manufacturer's instructions.

[2] = system: High Fat Diet Induced Obesity in C57 Mice; test: High fat diet induced obesity in C57 mice, 16 weeks (Example 1); assay type: in vivo, mouse; settings: for Change in weight / Final weight / Kidney weight / Pancreas Weight / Spleen Weight / Mesenteric Fat / Peri-gonadal Fat / Retroperitoneal Fat: HFD; for Change in weight / Final weight / Mesenteric Fat / Peri-gonadal Fat / Retroperitoneal Fat: 120 days
Protocol: C57/BL6 mice, 6-8 weeks of age and 8 animals/Group (4 Male and 4 Female) were used for the study. Animals were housed under standard laboratory conditions, air-conditioned with adequate fresh air supply (12-15 Air changes per hour), room temperature 20.2-23.5° C. and relative humidity 58-64% with 12 hours fluorescent light and 12 hours dark cycle. The temperature and relative humidity was recorded once daily.
The animals were fed with Normal diet (9 kcal/day) and High fat diet (50 kcal/day) throughout the acclimatization and experimental period.
The design of the study groups is depicted in table 2.
Body weight of the animals was recorded in all the days of experimental period. At the end of the experimental period, the animals were sacrificed by cervical dislocation. Blood was collected and Serum was separated by centrifugation and used for the analysis of biochemical parameters. The organs such as Liver Kidney, Spleen and Pancreas and Fat Tissues (Retroperitoneal, Peri-gonadal and Mesenteric) were dissected out and washed in phosphate buffered saline.
The following parameters were measured in the above groups: • Measurement of Body weight • Determination of Organ Weight • Estimation of Cholesterol (Zak et al., ([…]) A new method for the determination of serum cholesterol. J Clin Endocrinol Metab., 94(7), 2215-2220) • Estimation of Triglycerides (Foster L. B and Dunn R. T. (1973) Stable reagents for determination of serum triglycerides by a colorimetric Hantzsch condensation method. Clin Chem. 196, 338-340). • Estimation of HDL Cholesterol (Burstein et al., (1970). Determination of HDL cholesterol. J. lipid Res., 11, 583). • Determination of LDL and VLDL (Friedewald et al., (1972) Estimation of the concentration of Low Density Lipoprotein cholesterol in plasma without use of preparative centrifuge. J. Clin Chem.; 18:499).

[3] = system: Mouse 3T3-L1 pre-adipocytes; test: Adipogenesis inhibition in 3T3-L1 cells, Oil red O staining; assay type: cell-based; settings: 3T3-L1 adipocytes, read-out: inhibition of lipid accumulation
Protocol: Garcinol (20%) stock of 10 mg/ml was prepared in DMSO and filtered through 0.2 micron syringe filter. Stock was diluted 1000 times in DMEM to get 10 μg/ml final concentration and serially diluted. Insulin (Hi Media) was bought as a solution at a concentration of 20 mg/ml. This was diluted to 1 μg/ml in DMEM. IBMX-(Sigma)—Stock of 5 mM was prepared in DMEM, and diluted 10 times to be used at a final concentration of 0.5 mM. Dexamethasone (Sigma)—A stock of […] was prepared in DMEM and diluted 40 times to get a final concentration of 0.25 μM
Mouse 3T3-L1 pre-adipocytes were cultured in DMEM containing 25 mM glucose with 10% heat-inactivated fetal calf serum with antibiotics at 37° C. and 5% CO2. When the cells were 70-80% confluent, they were trypsinized, washed and seeded in 6 well plates at a density of 2×10^6 cells per well. Cells were induced to differentiate 2 d after reaching confluence (day 0), by supplementing DMEM media containing 10% Fetal Bovine Serum (FBS) along with 1 μg/mL insulin, 0.25 μM dexamethasone, 0.5 mM 1-methyl-3-isobutyl-xanthine (IBMX) and different concentrations of Garcinol (20%). From day 3 until day 7, cells were maintained in progression media supplemented with 1 μg/mL insulin and different concentrations of Garcinol (20%). […] Quantification for amount of triglycerides accumulated in adipocytes was done by Oil red O staining.

C=C(C)[C@@H](CC=C(C)C)C[C@@]12C[C@@H](CC=C(C)C)C(C)(C)[C@@](CC=C(C)C)(C(=O)C(C(=O)c3ccc(O)c(O)c3)=C1O)C2=O [garcinol]
decrease of mesenteric fat weight compared to the HFD group ([1]; 0.5% garcinol, HFD, 13 weeks): 77.7% | decrease of perigonadal fat weight compared to the HFD group ([1]; 0.5% garcinol, HFD, 13 weeks): 85.1% | decrease of retroperitoneal fat weight compared to the HFD group ([1]; 0.5% garcinol, HFD, 13 weeks): 92.4% | GPT ([1]; HFD + 0.1% Gar): 20.5 ± 7.26^b U/L | HDL ([1]; HFD + 0.1% Gar): 152.6 ± 9.73^a mg/dL | LDL ([1]; HFD + 0.1% Gar): 33.3 ± 0.72^b mg/dL | LDL/HDL ([1]; HFD + 0.1% Gar): 0.22 ± 0.02^b | T-CHO ([1]; HFD + 0.1% Gar): 179.7 ± 11.85^b mg/dL | TG ([1]; HFD + 0.1% Gar): 69.6 ± 19.90^ab mg/dL | percentage frequency of adipocytes, Adipocyte Size area 2000 ([1]; HFD + 0.1% garcinol): 8.38 ± 5.3^b | percentage frequency of adipocytes, Adipocyte Size area 15000 ([1]; HFD + 0.1% garcinol): 4.03 ± 1.0^a | percentage frequency of adipocytes, Adipocyte Size area >350000 ([1]; HFD + 0.1% garcinol): 3.32 ± 1.5^b | GPT ([1]; HFD + 0.5% Gar): 27.6 ± 3.72^ab U/L | HDL ([1]; HFD + 0.5% Gar): 118.7 ± 13.22^b mg/dL | LDL ([1]; HFD + 0.5% Gar): 24.9 ± 4.47^c mg/dL | LDL/HDL ([1]; HFD + 0.5% Gar): 0.21 ± 0.03^b | T-CHO ([1]; HFD + 0.5% Gar): 137.9 ± 11.78^c mg/dL | TG ([1]; HFD + 0.5% Gar): 55.6 ± 4.95^b mg/dL | percentage frequency of adipocytes, Adipocyte Size area 2000 ([1]; HFD + 0.5% garcinol): 19.2 ± 3.9^a | percentage frequency of adipocytes, Adipocyte Size area 15000 ([1]; HFD + 0.5% garcinol): 1.36 ± 0.9^b | percentage frequency of adipocytes, Adipocyte Size area >350000 ([1]; HFD + 0.5% garcinol): 0.00 ± 0.0^c | Change in weight ([2]; G5: garcinol 5 mg/kgbw): 10.03 ± 2.25 g | Final weight ([2]; G5: garcinol 5 mg/kgbw): 29.33 ± 1.47 g | Change in weight ([2]; G10: garcinol 10 mg/kgbw): 10.25 ± 1.39 g | Final weight ([2]; G10: garcinol 10 mg/kgbw): 28.25 ± 1.39 g | Change in weight ([2]; G20: garcinol 20 mg/kgbw): 7.62 ± 2.18 g | Final weight ([2]; G20: garcinol 20 mg/kgbw): 27.37 ± 1.88 g | Change in weight ([2]; G40: garcinol 40 mg/kgbw): 6.28 ± 1.03 g | Final weight ([2]; G40: garcinol 40 mg/kgbw): 26.00 ± 1.33 g | Kidney weight ([2]; Group III: garcinol 5 mg/kgbw): 0.49 ± 0.03 g wet tissue | Pancreas Weight ([2]; Group III: garcinol 5 mg/kgbw): 0.23 ± 0.01 g wet tissue | Spleen Weight ([2]; Group III: garcinol 5 mg/kgbw): 0.25 ± 0.02 g wet tissue | Mesenteric Fat ([2]; Group III: garcinol 5 mg/kgbw): 0.63 ± 0.07 g wet tissue | Peri-gonadal Fat ([2]; Group III: garcinol 5 mg/kgbw): 1.33 ± 0.32 g wet tissue | Retroperitoneal Fat ([2]; Group III: garcinol 5 mg/kgbw): 0.45 ± 0.06 g wet tissue | Kidney weight ([2]; Group IV: garcinol 10 mg/kgbw): 0.42 ± 0.03 g wet tissue | Pancreas Weight ([2]; Group IV: garcinol 10 mg/kgbw): 0.17 ± 0.01 g wet tissue | Spleen Weight ([2]; Group IV: garcinol 10 mg/kgbw): 0.20 ± 0.01 g wet tissue | Mesenteric Fat ([2]; Group IV: garcinol 10 mg/kgbw): 0.56 ± 0.05 g wet tissue | Peri-gonadal Fat ([2]; Group IV: garcinol 10 mg/kgbw): 1.17 ± 0.22 g wet tissue | Retroperitoneal Fat ([2]; Group IV: garcinol 10 mg/kgbw): 0.43 ± 0.05 g wet tissue | Kidney weight ([2]; Group V: garcinol 20 mg/kgbw): 0.45 ± 0.06 g wet tissue | Pancreas Weight ([2]; Group V: garcinol 20 mg/kgbw): 0.21 ± 0.02 g wet tissue | Spleen Weight ([2]; Group V: garcinol 20 mg/kgbw): 0.22 ± 0.03 g wet tissue | Mesenteric Fat ([2]; Group V: garcinol 20 mg/kgbw): 0.601 ± 0.08 g wet tissue | Peri-gonadal Fat ([2]; Group V: garcinol 20 mg/kgbw): 1.35 ± 0.21 g wet tissue | Retroperitoneal Fat ([2]; Group V: garcinol 20 mg/kgbw): 0.46 ± 0.06 g wet tissue | Kidney weight ([2]; Group VI: garcinol 40 mg/kgbw): 0.42 ± 0.04 g wet tissue | Pancreas Weight ([2]; Group VI: garcinol 40 mg/kgbw): 0.22 ± 0.02 g wet tissue | Spleen Weight ([2]; Group VI: garcinol 40 mg/kgbw): 0.23 ± 0.02 g wet tissue | Mesenteric Fat ([2]; Group VI: garcinol 40 mg/kgbw): 0.59 ± 0.05 g wet tissue | Peri-gonadal Fat ([2]; Group VI: garcinol 40 mg/kgbw): 1.41 ± 0.14 g wet tissue | Retroperitoneal Fat ([2]; Group VI: garcinol 40 mg/kgbw): 0.46 ± 0.04 g wet tissue | weight of the organs (adverse effects) ([2]; kidney, spleen, pancreas, Table 5): did not adversely affect | inhibition at 5 µg/mL ([3]; 5 μg/ml): 47.8% | inhibition at 10 µg/mL ([3]; 10 μg/ml): 47.2%
